Experimental data reported in ChEMBL document CHEMBL1142594, “Antioxidative constituents of Etlingera elatior” (J Nat Prod, 2005).

Experiment: Antioxidant activity assessed as inhibition of lipid peroxidation at 300 uM by ferric thiocyanate method
Assay type: functional
`COc1cc(/C=C/C(O)=C/C(=O)/C=C/c2ccc(O)cc2)ccc1O` gave an inhibition of 92.5%.
With `Cc1c(C)c2c(c(C)c1O)CC[C@@](C)(CCC[C@H](C)CCC[C@H](C)CCCC(C)C)O2` the inhibition was 69.5%.
`O=C(/C=C/C=C/C=C/c1ccc(O)cc1)c1ccc(O)cc1` gave an inhibition of 93.7%.
Compound `O=C(/C=C/C=C/c1ccc(O)cc1)/C=C/c1ccc(O)cc1` has an inhibition of 92.1%.
